For 35 compounds, EC50 results are on record in patent US11654199B2 (BOLT BIOTHERAPEUTICS, INC., priority 2019, dated 2023).

For assay [1], the target named is T1, human TLR7 (Homo sapiens, UniProt Q9NYK1).
T1 construct: host or cells: HEK293 reporter cells
T1 sequence (Q9NYK1 27-1049): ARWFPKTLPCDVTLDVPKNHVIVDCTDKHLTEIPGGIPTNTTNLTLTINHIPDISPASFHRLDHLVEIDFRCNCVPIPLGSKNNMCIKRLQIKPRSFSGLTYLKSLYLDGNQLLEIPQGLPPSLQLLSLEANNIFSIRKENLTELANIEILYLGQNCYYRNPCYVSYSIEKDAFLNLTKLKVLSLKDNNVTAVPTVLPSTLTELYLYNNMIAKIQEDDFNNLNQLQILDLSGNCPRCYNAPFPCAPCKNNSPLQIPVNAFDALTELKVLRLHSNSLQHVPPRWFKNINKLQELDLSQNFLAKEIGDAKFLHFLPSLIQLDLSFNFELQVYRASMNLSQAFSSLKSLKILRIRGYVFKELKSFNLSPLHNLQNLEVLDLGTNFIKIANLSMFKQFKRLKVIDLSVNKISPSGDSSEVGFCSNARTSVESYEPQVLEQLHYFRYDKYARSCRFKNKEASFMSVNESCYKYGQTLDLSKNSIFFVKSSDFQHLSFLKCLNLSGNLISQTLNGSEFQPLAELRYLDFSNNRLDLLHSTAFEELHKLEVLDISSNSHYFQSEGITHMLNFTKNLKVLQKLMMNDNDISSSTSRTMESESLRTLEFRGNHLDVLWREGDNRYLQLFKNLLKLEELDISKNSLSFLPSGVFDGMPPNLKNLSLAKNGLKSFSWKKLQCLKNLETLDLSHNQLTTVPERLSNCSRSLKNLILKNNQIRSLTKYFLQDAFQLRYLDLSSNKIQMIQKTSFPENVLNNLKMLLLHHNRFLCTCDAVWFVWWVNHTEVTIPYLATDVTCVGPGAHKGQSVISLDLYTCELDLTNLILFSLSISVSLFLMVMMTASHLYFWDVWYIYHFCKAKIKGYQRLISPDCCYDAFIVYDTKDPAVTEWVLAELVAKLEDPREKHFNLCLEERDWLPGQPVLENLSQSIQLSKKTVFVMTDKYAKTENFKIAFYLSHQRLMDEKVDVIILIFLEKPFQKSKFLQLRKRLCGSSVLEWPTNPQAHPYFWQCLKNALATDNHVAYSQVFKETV
The assay can be described thus: HEK293 NFKB reporter assay, human TLR7. The class given is cell-based. The conditions noted are these: HEK293 NFKB reporter cells expressing human TLR7; read-out: HEK293 hTLR7 EC50. As to the method: (§1) Each compound was synthesized, purified, and characterized by mass spectrometry and shown to have the mass indicated. Additional experimental procedures are found in the Examples. Activity against HEK293 NFKB reporter cells expressing human TLR7 or human TLR8 was measured according to Example 202.
(§2) HEK293 reporter cells expressing human TLR7 or human TLR8 were purchased from Invivogen and vendor protocols were followed for cellular propagation and experimentation. Briefly, cells were grown to 80-85% confluence at 5% CO2 in DMEM supplemented with 10% FBS, Zeocin, and Blasticidin. Cells were then seeded in 96-well flat plates at 4×10^4 cells/well with substrate containing HEK detection medium and immunostimulatory molecules. Activity was measured using a plate reader at 620-655 nm wavelength.
For orientation: In a reporter assay the amount or activity of a reporter protein is the signal.

In assay [2] the target is T2, human TLR8 (Homo sapiens, UniProt Q9NR97).
T2 construct: host or cells: HEK293 reporter cells
T2 sequence (Q9NR97 27-1041): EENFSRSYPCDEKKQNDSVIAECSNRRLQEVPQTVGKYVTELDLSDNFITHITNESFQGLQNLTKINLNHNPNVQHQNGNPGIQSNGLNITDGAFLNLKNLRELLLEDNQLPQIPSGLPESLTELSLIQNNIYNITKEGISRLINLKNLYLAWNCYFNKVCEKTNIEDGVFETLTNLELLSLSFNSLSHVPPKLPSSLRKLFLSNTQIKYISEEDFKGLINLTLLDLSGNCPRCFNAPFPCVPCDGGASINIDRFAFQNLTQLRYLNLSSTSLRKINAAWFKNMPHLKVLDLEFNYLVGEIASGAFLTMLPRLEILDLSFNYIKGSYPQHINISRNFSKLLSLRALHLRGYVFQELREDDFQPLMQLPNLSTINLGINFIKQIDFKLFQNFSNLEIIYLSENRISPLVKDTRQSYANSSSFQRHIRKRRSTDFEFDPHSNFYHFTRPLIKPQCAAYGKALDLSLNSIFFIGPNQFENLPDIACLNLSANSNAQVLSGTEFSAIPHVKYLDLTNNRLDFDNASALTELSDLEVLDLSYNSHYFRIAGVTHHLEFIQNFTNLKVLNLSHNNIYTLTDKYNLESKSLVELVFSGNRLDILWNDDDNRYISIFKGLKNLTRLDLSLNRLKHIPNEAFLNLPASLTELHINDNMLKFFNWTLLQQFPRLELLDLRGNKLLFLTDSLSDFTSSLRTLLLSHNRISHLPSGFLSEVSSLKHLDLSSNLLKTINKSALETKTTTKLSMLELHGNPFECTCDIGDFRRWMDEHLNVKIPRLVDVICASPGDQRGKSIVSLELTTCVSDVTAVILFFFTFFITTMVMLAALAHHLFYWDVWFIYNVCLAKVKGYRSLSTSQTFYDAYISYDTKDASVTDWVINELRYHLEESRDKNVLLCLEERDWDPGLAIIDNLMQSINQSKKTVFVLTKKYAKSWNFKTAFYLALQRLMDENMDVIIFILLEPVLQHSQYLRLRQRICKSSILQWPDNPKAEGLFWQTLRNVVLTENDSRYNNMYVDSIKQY
The assay can be described thus: HEK293 NFKB reporter assay, human TLR8. Type of assay: cell-based. Particulars: HEK293 NFKB reporter cells expressing human TLR8; read-out: HEK293 hTLR8 EC50. As to the method:
as §1, §2

Usually EC50 stands for the midpoint of the concentration-response curve. For the compound `CCCN(Cc1ccc(CN)c(C(F)(F)F)c1)C(=O)C1=Cc2sccc2N=C(N)C1`, the values for the 50% effective concentration (EC50) in assay [1] and in assay [2] were 0.905 µM and 35 nM, respectively.
On the same counts, the results for `CCCN(CCC)C(=O)C1=Cc2sc(C#CCCCNC(=O)OC(C)(C)C)cc2N=C(N)C1` [TAZ-6, tert-butyl N-[5-[5-amino-7-(dipropylcarbamoyl)-6H-thieno[3,2-b]azepin-2-yl]pent-4-ynyl] carbamate] are over 9 µM and over 9000 nM.
On the same counts, the results for `CCCN(CCCNC(=O)OC(C)(C)C)C(=O)C1=Cc2sccc2N=C(N)C1` [TAZ-8, tert-butyl N-[3-[(5-amino-6H-thieno[3,2-b]azepine-7-carbonyl)-propyl-amino]propyl]carbamate] are 0.589 µM and 1530 nM.
The matching figures for `CCCN(CCC)C(=O)C1=Cc2sc(C(=O)NCCCNC(=O)OC(C)(C)C)cc2N=C(N)C1` [TAZ-31]: over 9 µM and over 9000 nM.
As to `CCCN(CCC)C(=O)C1=Cc2sc(C(=O)NCCCN)cc2N=C(N)C1` [TAZ-32], the EC50 is over 9 µM in assay [1] and over 9000 nM in assay [2].
On the same counts, the results for `CCCN(CCC)C(=O)C1=Cc2sc(C#CCCCN)cc2N=C(N)C1` [TAZ-33] are over 9 µM and over 9000 nM.
On the same counts, the results for `CCCN(Cc1ccc(CN2CCN(C(=O)OC(C)(C)C)CC2)cc1)C(=O)C1=Cc2sccc2N=C(N)C1` [TAZ-34] are over 9 µM and 339 nM.
The matching figures for `CCCN(CCC)C(=O)C1=Cc2sc(C#CCCN)cc2N=C(N)C1` [TAZ-35]: over 9 µM and 2870 nM.
Regarding `CCCN(CCC)C(=O)C1=Cc2sc(CCCCNC(=O)OC(C)(C)C)cc2N=C(N)C1` [TAZ-36], the concentration for a half-maximal effect (EC50) is 8.52 µM in assay [1] and over 9000 nM in assay [2].
On the same counts, the results for `CCCN(CCC)C(=O)C1=Cc2sc(CCCCN)cc2N=C(N)C1` [TAZ-38] are 4.15 µM and 3750 nM.
The matching figures for `CCCN(Cc1ccccc1)C(=O)C1=Cc2sccc2N=C(N)C1` [TAZ-39]: over 9 µM and over 9000 nM.
Regarding `CCCN(CC12CC(CNC(=O)OC(C)(C)C)(C1)C2)C(=O)C1=Cc2sccc2N=C(N)C1` [TAZ-40], the half-maximal effective concentration (EC50) was over 9 µM in assay [1] and over 9000 nM in assay [2].
On to `CCCN(CC12CC(CN)(C1)C2)C(=O)C1=Cc2sccc2N=C(N)C1` [TAZ-41], for which the concentration giving a half-maximal response (EC50) in assay [1] is over 9 µM; in assay [2], over 9000 nM.
On the same counts, the results for `CCCN(Cc1ccc(CNC(=O)OC(C)(C)C)cn1)C(=O)C1=Cc2sccc2N=C(N)C1` [TAZ-42] are over 9 µM and over 9000 nM.
Consider `CCCN(CCC)C(=O)C1=Cc2sc(CN3CCN(C(=O)OC(C)(C)C)CC3)cc2N=C(N)C1` [TAZ-43], for which the EC50 in assay [1] was over 9 µM; in assay [2], over 9000 nM.
The matching figures for `CCCN(CCC)C(=O)C1=Cc2sc(CN3CCNCC3)cc2N=C(N)C1` [TAZ-44]: 4.53 µM and 593 nM.
The matching figures for `CCCN(Cc1ccc(CNC(C)=O)cc1)C(=O)C1=Cc2sccc2N=C(N)C1` [TAZ-45]: over 9 µM and 1780 nM.
For the compound `CCCN(Cc1ccc(CNC(=O)CCOC)cc1)C(=O)C1=Cc2sccc2N=C(N)C1` [TAZ-46], the half-maximal effective concentration (EC50) is over 9 µM in assay [1] and 1580 nM in assay [2].
On the same counts, the results for `CCCN(CC12CC(CN(C)C)(C1)C2)C(=O)C1=Cc2sccc2N=C(N)C1` [TAZ-47] are over 9 µM and over 9000 nM.
Take `CCCN(C[C@H]1C[C@@H](CNC(=O)OC(C)(C)C)C1)C(=O)C1=Cc2sccc2N=C(N)C1` [TAZ-48]: the results for the EC50 in assay [1] and in assay [2] were over 9 µM and over 9000 nM, respectively.
On the same counts, the results for `CCCN(C[C@H]1C[C@@H](CN)C1)C(=O)C1=Cc2sccc2N=C(N)C1` [TAZ-49] are over 9 µM and over 9000 nM.
The matching figures for `[2H]C1=C(C(=O)N(CCC)Cc2ccc(CNC(=O)OC(C)(C)C)nc2)CC(N)=Nc2ccsc21` [TAZ-50]: 7.12 µM and 7940 nM.
Take `CCCN(Cc1ccc(CNC(=O)OC(C)(C)C)cc1C(F)(F)F)C(=O)C1=Cc2sccc2N=C(N)C1` [TAZ-51]: the half-maximal effective concentration (EC50) in assay [1] is over 9 µM; in assay [2], 5630 nM.
On the same counts, the results for `CCCN(Cc1ccc(CN)cc1C(F)(F)F)C(=O)C1=Cc2sccc2N=C(N)C1` [TAZ-52, 5-amino-N-[[4-(aminomethyl)-2-(trifluoromethyl)phenyl]methyl]-N-propyl-6H-thieno[3,2-b]azepine-7-carboxamide] are 2.71 µM and 151 nM.
On the same counts, the results for `CCCN(OCC)C(=O)C1=Cc2sccc2N=C(N)C1` [TAZ-53] are 3.62 µM and 181 nM.
As to `CCCN(CCC)C(=O)C1=Cc2sc(S(=O)(=O)NCCCNC(=O)OC(C)(C)C)cc2N=C(N)C1` [TAZ-55], the 50% effective concentration (EC50) in assay [1] is over 9 µM; in assay [2], over 9000 nM.
On the same counts, the results for `CCCN(CCC)C(=O)C1=Cc2sc(S(=O)(=O)NCCCN)cc2N=C(N)C1` [TAZ-56] are over 9 µM and over 9000 nM.
The matching figures for `CCCN(Cc1cnc(CNC(=O)OC(C)(C)C)cn1)C(=O)C1=Cc2sccc2N=C(N)C1` [TAZ-57]: 1.05 µM and 3850 nM.
The matching figures for `CCCN(Cc1ccc(CCN)cc1)C(=O)C1=Cc2sccc2N=C(N)C1` [TAZ-58]: over 9 µM and 1300 nM.
For `CCCN(Cc1ccc(CCNC(=O)OC(C)(C)C)cc1)C(=O)C1=Cc2sccc2N=C(N)C1` [TAZ-59], the results for the EC50 in assay [1] and in assay [2] were over 9 µM and over 9000 nM, respectively.
The matching figures for `CCCN(Cc1cnc(CN)cn1)C(=O)C1=Cc2sccc2N=C(N)C1` [TAZ-62]: 8.32 µM and 178 nM.
Turning to `CCCN(Cc1ccc(CN)nc1)C(=O)C1=Cc2sccc2N=C(N)C1` [TAZ-63], the values for the EC50 in assay [1] and in assay [2] were 4.21 µM and 517 nM, respectively.
In the case of `CCCN(CCC(F)(F)F)C(=O)C1=Cc2sccc2N=C(N)C1` [TAZ-64], the EC50 in assay [1] amounted to 5.06 µM; in assay [2] it was 2740 nM.
Consider `CCCN(CCCNC(=O)OC1CCC1)C(=O)C1=Cc2sc(CC3CCNCC3)cc2N=C(N)C1` [TAZ-185, cyclobutyl N-[3-[[5-amino-2-(4-piperidylmethyl)-6H-thieno[3,2-b]azepine-7-carbonyl]-propyl-amino]propyl]carbamate], for which, in assay [1], the EC50 amounted to 3.7 µM.
The same measure, in the same setting: the value for `CCCN(CCCNC(=O)OC1CCC1)C(=O)C1=Cc2sc(CCC3CNC3)cc2N=C(N)C1` [TAZ-197] was 1.81 µM.
